Where no end group is shown, it is not given here. [ ]: non-standard residue; d: D form. TGN = not defined here
Test system: CTNNB1
Experiment: In vitro DMD assay: mRNA silencing enhancement by peptide conjugates after siRNA-IV treatment
Type: cell-based
Details: primary mouse hepatocytes, siRNA-IV 125 nM baseline
Experimental: Cryopreserved primary Mouse hepatocytes (Bioreclamation, LLC) were placed into Collagen Type I coated 96-well plates at 25,000 cells per well in serum-containing InVitroGRO CP media (Bioreclamation, LLC) and allowed 5 hours to attach. Media was replaced with InVitroGRO HI media and cells were treated with siRNA-IV at 125 nM [siRNA] for 1 hour. Media was replaced with InVitroGRO HI media and cells were treated for approximately 16 hours with experimental Peptide conjugates at various concentrations to establish a dose-response curve. Peptide conjugates were washed out after 16 hours with InVitroGRO HI media and cells allowed to incubate for an additional 24 hours. Cells were then lysed and mRNA expression of the siRNA target was measured by RT-qPCR (Applied Biosystems Taqman reagents). mRNA silencing activity of each Peptide conjugate was expressed as an enhancement above the baseline activity of 125 nM siRNA-IV alone with respect to the untreated cells and all siRNA target Ct values were normalized to PPIB mRNA for each well (dddCt) and summarized.
The structure of TGN-S-S-peptide is shown below and the activity data is listed in Table 5 (siRNA-IV concentration was kept at […]).

Substance	In vitro dddCt (vs. baseline SCE dose) (Targeted peptide dose 8 nM)	In vitro dddCt (vs. baseline SCE dose) (Targeted peptide dose 40 nM)	In vitro dddCt (vs. baseline SCE dose) (Targeted peptide dose 200 nM)	In vitro dddCt (vs. baseline SCE dose) (Targeted peptide dose 1000 nM)	In vitro dddCt (vs. baseline SCE dose) (Targeted peptide dose 5000 nM)	In vitro dddCt (vs. baseline SCE dose) (Targeted peptide dose 25 nM)	In vitro dddCt (vs. baseline SCE dose) (Targeted peptide dose 125 nM)	In vitro dddCt (vs. baseline SCE dose) (Targeted peptide dose 625 nM)	In vitro dddCt (vs. baseline SCE dose) (Targeted peptide dose 3125 nM)
TGN-S-S-SEQ ID NO: 1794 (D) ([dC]G[dL][dF]G[dA][dI][dE][dE][dL][dI][dE][dE]G[dL][dE][dN][dL][dI][dD][dW]G[dN]G; not fully specified (residue 1); also: TGN conjugated via disulfide at Cys1; listed as Homo sapiens)	−0.09	−0.8	−2.22	−2.71	−2.61	–	–	–	–
TGN-S-S-SEQ ID NO: 1795 (D) ([dC]G[dF][dF]G[dE][dI][dE][dE][dL][dI][dE][dE]G[dL][dE][dN][dL][dI][dD][dW]G[dN]G; not fully specified (residue 1); also: TGN conjugated via disulfide at Cys1; listed as Homo sapiens)	−0.1	−0.33	−0.71	0.94	−0.71	–	–	–	–
TGN-S-S-SEQ ID NO: 1796 (D) ([dC]G[dL][dW]G[dE][dI][dE][dE][dL][dI][dE][dE]G[dL][dE][dN][dL][dI][dD][dW]G[dN]G; not fully specified (residue 1); also: TGN conjugated via disulfide at Cys1; listed as Homo sapiens)	0.05	−0.56	−1.13	−1.98	−1.81	–	–	–	–
TGN-S-S-SEQ ID NO: 1797 (D) ([dC]G[dL][dF]G[dE][dW][dE][dE][dL][dI][dE][dE]G[dL][dE][dN][dL][dI][dD][dW]G[dN]G; not fully specified (residue 1); also: TGN conjugated via disulfide at Cys1; listed as Homo sapiens)	0	0.41	0.08	0.05	0.24	–	–	–	–
TGN-S-S-SEQ ID NO: 1798 (D) ([dC]G[dL][dF]G[dE][dF][dE][dE][dL][dI][dE][dE]G[dL][dE][dN][dL][dI][dD][dW]G[dN]G; not fully specified (residue 1); also: TGN conjugated via disulfide at Cys1; listed as Homo sapiens)	−0.09	−0.69	−0.13	−0.26	−0.18	–	–	–	–
TGN-S-S-SSEQ ID NO: 1799(D) ([dC]G[dL][dF]G[dE][dI][dE][dE][dL][dI][dE][dE]G[dL][dE][dN][dL][dL][dD][dW]G[dN]G; not fully specified (residue 1); also: TGN conjugated via disulfide at Cys1; listed as Homo sapiens)	0.03	−0.45	−1.63	−2.13	−2.22	–	–	–	–
TGN-S-S-Seq-ID-25 (D) ([dC][dI][dF]G[dA][dI][dA]G[dF][dI][dK][dN][dI][dW][dE]G[dL][dI][dD][dA][dF]; not fully specified (residue 1); also: disulfide-linked to TGN peptide via Cys; listed as Homo sapiens)	−0.06	0.2	−0.13	0.01	−1.72	–	–	–	–
TGN-S-S-Seq-ID-37 (L) (C(TGN)IFGAIAGFIKNIWKGLIDWWYG; reading uncertain; also: disulfide-linked to TGN peptide via Cys; listed as Homo sapiens)	0.02	0.14	−0.01	−0.19	−0.79	–	–	–	–
TGN-S-S-Seq-ID-54 (L) (C(TGN)FFGAIWEFIRSILEGLIDGWYGYGRKKRRQRR; reading uncertain; also: disulfide-linked to TGN peptide via Cys; listed as Homo sapiens)	0.03	−0.07	−0.16	−0.03	0.07	–	–	–	–
TGN-S-S-Seq-ID-55 (L) (C(TGN)GLFHALLHLLHSLWHLLLHAWYGYGRKKRRQRR; reading uncertain; also: disulfide-linked to TGN peptide via Cys; listed as Homo sapiens)	0.11	0.08	0.12	0.05	−0.01	–	–	–	–
TGN-S-S-Seq-ID-56 (L) (C(TGN)GLFHALLHLLHSLWHLLLHAWYGYGHKKHHQHR; reading uncertain; also: disulfide-linked to TGN peptide via Cys; listed as Homo sapiens)	0.02	0.05	−0.12	−0.08	−0.58	–	–	–	–
TGN-S-S-Seq-ID-57 (L) (C(TGN)GLFGALLELLESLWKGLLEWYGRKKRRQRR; reading uncertain; also: disulfide-linked to TGN peptide via Cys; listed as Homo sapiens)	0.1	0	0.02	0.1	0.09	–	–	–	–
TGN-S-S-Seq-ID-58 (D) (CRRQRRKKRGYGYWGDILGEWGNEIFGEIAEFLG; not fully specified; TGN disulfide conjugate; D-amino acids; listed as Homo sapiens)	−0.05	−0.03	−0.25	−0.26	−0.3	–	–	–	–
TGN-S-S-Seq-ID-61 (D) (CRRQRRKKRGYGYWWDILGKWGNEIFGEIAEFLG; not fully specified; TGN disulfide conjugate; D-amino acids; listed as Homo sapiens)	0.13	0.08	0.01	0	−0.55	–	–	–	–
TGN-S-S-Seq-ID-65 (D) ([dC][dI][dF]G[dA][dI][dA]G[dF][dI][dK][dN][dI][dW][dK]; not fully specified (residue 1); also: disulfide-linked to TGN peptide via Cys; listed as Homo sapiens)	0	−0.73	−1.48	−1.88	−2.68	–	–	–	–
TGN-S-S-Seq-ID-111 (D) ([dC][dF][dF]G[dA][dI][dW][dE][dF][dI][dK][dS][dI][dL][dE]G[dL][dI][dD][dW][dW][dY]G[dY]G[dH][dK][dK][dH][dH][dQ][dH][dR]; not fully specified (residue 1); also: TGN conjugated via disulfide at Cys1; listed as Homo sapiens)	–	–	–	–	−1.4	–	–	–	–
TGN-S-S-Seq-ID-115 (D) ([dC][dL][dH][dL][dL][dH][dH][dL][dL][dH][dH][dL][dH][dH][dL][dL][dH][dH][dL][dL][dH][dL][dL][dH][dH][dL][dL][dH][dH][dL]GGG[dR][dK][dK][dR][dR][dQ][dR][dR][dR][dP][dP][dQ]; not fully specified (residue 1); also: TGN conjugated via disulfide at Cys1; listed as Homo sapiens)	–	–	–	–	−0.17	–	–	–	–
TGN-S-SEQ ID NO: 1517 (L) (CGLFGEIEELIEEGLECITLIDWWNG; cysteine pairing not given here; also: TGN-S conjugate; listed as Homo sapiens)	–	–	–	–	–	0.54	0.49	0.48	0.33
